Results: patent publication EP1056700B1, “MEDICINAL USES OF PHENYLALKANOLS AND DERIVATES” (ZingoTX Pty Ltd, priority 1997, dated 1999)
Several values for one entry are separate records, joined by “and”; a condition that tells them apart may be missing. Identical values can stand only once. Entries after “also recorded” stand apart in the source; their conditions may differ.

Assays:
left atrium rat = experiment: Cardiovascular and neuro-effector junction activities: left atrium, rat; details: result in words with concentration
From the text: (§1) The cardiotonic action of 1-(4-hydroxy-3-methoxyphenyl)dodecan-3-ol [3.93] was confirmed from independent studies, carried out at our request as part of our agreement with Johnson & Johnson Research Ltd (J&J), by Prof. James Angus from the University of Melbourne. […] A tachycardial effect of the substance on guinea pig atria was, however, observed at significant rate, 50-60% of isoprenaline Emax and the response was not α- or β-adrenoceptor mediated. […] Cardiovascular and neuro-effector junction activities of gingerol analogues

vas deferens rat = experiment: Cardiovascular and neuro-effector junction activities: vas deferens, rat
From the text: as §1

diaphragm rat = experiment: Cardiovascular and neuro-effector junction activities: diaphragm, rat
From the text: as §1

[1] = tested on: right atrium-vagus guinea pig; experiment: Cardiovascular and neuro-effector junction activities: right atrium-vagus, guinea pig; details: result in words with concentration
From the text: as §1

right atrium guinea pig = experiment: Cardiovascular and neuro-effector junction activities: right atrium, guinea pig; details: for right atrium guinea pig: result in words with concentration
From the text: as §1

left atrium guinea pig = experiment: Cardiovascular and neuro-effector junction activities: left atrium, guinea pig; details: for left atrium guinea pig: result in words with concentration
From the text: as §1

rat mesenteric artery = experiment: Vasodilation on rat mesenteric small arteries; details: for EC50: Rattus norvegicus, relaxation of small arteries (200-300 µm) precontracted with endothelin; for relaxation of rat mesenteric artery: result in words
From the text: Small arteries (200-300 µm in diameter) isolated from rat mesentery were precontracted with endothelin prior to addition of the test substances and tested for relaxation.

Platelet rich plasma = experiment: Platelet aggregation: [^3H]-serotonin release from platelet rich plasma, arachidonic acid initiated; assay type: cell-based; details: Homo sapiens, activation by EC50 concentration of arachidonic acid
Experimental: Blood was collected from healthy volunteers who had taken no medication in the previous two weeks. The anticoagulant used was 3.8 % trisodium citrate. Platelet rich plasma was prepared and incubated with [^3H]-serotonin. This was followed by addition of gingerol analogues. Platelet activation was initiated using the EC50 concentration for arachidonic acid. The percentage of [^3H]-serotonin release was measured using a liquid scintillation counter. Then, dose-response curves were established and IC50 values were obtained.

[2] = Brine shrimp toxicity bioassay; assay type: in vivo; details: Artemia salina (brine shrimp), in vivo; 24 hours, 2% DMSO
From the text: The brine shrimp assay procedure determines LC50 values of active compounds. Activities of a broad range of known active compounds are manifested as toxicity to brine shrimp (Artemia salina Leach). There are many applications of the assay including analysis of toxic substances, anaesthetics, morphine-like substances and cocarcinogenicity of phorbol esters.
The method for testing solvent toxicity used was basically that reported by J L McLaughlin in Methods of Plant Biochemistry (1991), vol. 6 (K Hostettman, ed.), Academic Press, London, 1-32. DMSO solutions of the substances to be tested were added directly to the vials containing the brine shrimp. As the concentration of DMSO that we wished to use was higher than the recommended 1% v/v testing of the toxicity of the DMSO was therefore necessary. The concentrations of DMSO tested on the shrimp, along with the results from the assay which was done in duplicate are listed below.
Brine shrimp toxicity was assayed, except for some minor modifications, according to the method of McLaughlin et al as reported in Brine Shrimp: A convenient bioassay for active plant constituents, B N Meyer, N R Ferrigni, J E Putnam, L B Jacobsen, D E Nichols and J L McLaughlin in Planta Medica (1982), 45, 31-34 and Crown gall tumours on potato discs and brine shrimp lethality: Two simple bioassays for higher plant screening and fractionation. J L McLaughlin. Methods of Plant Biochemistry (1991), vol. 6 (K Hostettman, ed.), Academic Press, London, 1-32. Ten shrimp were transferred to each of the vials and the volume adjusted to 4.9 mL. Each dose was performed in triplicate, including the control. In quick succession, the appropriate volume of additional DMSO for each dose, required to achieve a final concentration of 2%, was added before the appropriate volume of test solution. The vials were gently mixed and the time noted. After 24 hours, the number of survivors were counted and % mortality was determined. The test compounds were assayed at concentrations of 100 µM, 25 µM, 5 µM, 1 µM and 0.2 µM (and where appropriate concentrations of 0.04 µM and 0.008 µM).
The brine shrimp were able to survive without food in the vials over the 24 hour period and were therefore not fed.
The dose-response curves were constructed using the Sigmaplot computer program and the LC50 value was calculated from the intersection point of the curve and the 50 % mortality line. The LC50 values were expressed in both µM and µg/mL.

DRG neuronal cells = experiment: Peak [Ca^2+]i transients in cultured dorsal root ganglion neurons (Fura-2); assay type: cell-based, rat; details: for Number of capsaicin-sensitive cells responding / Peak [Ca^2+]i (Average ±SD): 2 mM Ca^2+
Experimental: DRG from neonatal (3-5 days old) rat or adult Sprague-Dawley rats were incubated in Hanks CMF saline with 0.05% collagenase and 0.25% trypsin for 25 min at 37° C. Individual cells were obtained by trituration with fire polished Pasteur pipettes of diminishing diameters. Neurones were isolated from the cell suspension in 30% Percoll and then plated on collagen coated coverslips or in 24-well plates, then cultured in neurobasal medium with B27 supplement, 50 ng/ml 2.5 S nerve growth factor, 2 mM 1-glutamine and 100 U/ml penicillin/streptomycin. Cultures were maintained at 37° C with 5% CO2. 30% Percoll increases the percentage of capsaicin-sensitive DRG neurones up to 70%. For peak [Ca^2+]i transients measurements, cells on coverslips were incubated with 5 µM Fura-2 AM for 30 min at 37° C. The coverslips were then mounted on a chamber attached to a fast sample application perfusion system which allows changing solutions in the second range. Recordings were made on the stage of a Nikon Diaphot inverted microscope fitted with a Nikon 40 x Fluo (NA 0.85) DL Ph3 or 40 x Fluo (NA 1.3) oil objective. [Ca^2+]i was calculated from dual excitation wavelength (340/380 nm) fluorescence measurements following an intracellular calibration procedure by the Grynkiewicz equation, using MCID M2/M4 v.3.0 (Imaging Res. Inc.) software. Cells were continuously perfused with a solution consisting of 140 mM NaCl, 2 mM CaCl2, 5 mM KCl, 20 mM HEPES, 10 mM glucose, pH 7.4. To study KCl evoked depolarisation, 50 mM NaCl was replaced by equimolar KCl. Cytoplasmic localisation of Fura-2 was tested with the Mn^2+ quenching technique (Dedov and Roufogalis, 1998). All experiments were performed at room temperature (20-23°C).
Typical changes in [Ca^2+]i upon depolarisation were evoked by 50 mM KCl and by application of 1 µM capsaicin; both were applied for 30 sec. Capsaicin-evoked peak [Ca^2+]i transients are characterised by a fast rise and long-steady state [Ca^2+]i clearance from the cytoplasm. In capsaicin-sensitive cells the half-time of cytoplasmic Ca^2+ clearance was proportional to the amplitudes of peak [Ca^2+]i transients.
To examine the effect of gingerol derivatives, one or several compounds in succession at a concentration of 10 µM were applied for 1 min to the DRG neuronal cells followed by washing out for 4 min with physiological solution. To the capsaicin-sensitive cells, 10 µM capsaicin and 50 mM KCl were applied, respectively, to confirm the viability of the cells. In addition, morphological appearances of the cells were also examined at the end of experiment. […]

[3] = result in words with concentration

SMILES	IC50 (Platelet rich plasma) [µM]	LC50 at 24 h [2]	Number of capsaicin-sensitive cells responding (DRG neuronal cells; 10 µM applied for 1 min)	Peak [Ca^2+]i (Average ±SD) (DRG neuronal cells; 10 µM applied for 1 min) [nM]	other results
CCCCCCCCCC(O)CCc1ccc(O)c(OC)c1 (centres unmarked) [1-(4-hydroxy-3-methoxyphenyl)dodecan-3-ol]	58 ± 1.9	> 100 µM and > 31 µg/mL	–	–	left atrium rat (left atrium rat): no change in force 10^-7 - 10^-5 M (n=2); block of ATP or α1-receptors in vas deferens (vas deferens rat): Neither blocked; vas deferens rat ↓ (vas deferens rat; 10^-5 M (vehicle?)): ↓30% 10^-5 M (vehicle?); diaphragm rat ↓ (diaphragm rat; 10^-5 M (vehicle?)): ↓10% 10^-5 M (vehicle?); right atrium-vagus guinea pig [1]: no enhancement of vagal slowing 10^-7 - 10^-5 M; Emax (right atrium guinea pig; Cavia porcellus, right atrium guinea pig, 10^-7 - 3x10^-5 M, not blocked by praz., prop., read-out: tachycardia, % of isoprenaline Emax): 50 to 60%; right atrium guinea pig (right atrium guinea pig): tachycardia 10^-7 - 3x10^-5 M; tachycardia, % of isoprenaline Emax (right atrium guinea pig; right atrium guinea pig, 10^-7 - 3x10^-5 M, not blocked by praz., prop.): 60%; inotropic, % isopren. max. (left atrium guinea pig; left atrium guinea pig, 10^-6 - 3x10^-5 M (not in rat)): 20%; left atrium guinea pig (left atrium guinea pig): inotropic 10^-6 - 3x10^-5 M; potency (EC50) for relaxation of the mesenteric artery versus inotropic effect in guinea pig atrium (rat mesenteric artery): 100 fold; EC50 (rat mesenteric artery): 0.1 µM; relaxation of rat mesenteric artery (rat mesenteric artery): very potent; also recorded: both enantiomers showed similar potency; Number of capsaicin-sensitive cells responding (DRG neuronal cells; high responses, 10 µM): 5; Peak [Ca^2+]i (Average ±SD) (DRG neuronal cells; high responses, 10 µM): 661 ± 376 (high responses) nM; evoked [Ca^2+]i transients (DRG neuronal cells; in Ca^2+-free medium or on application of ruthenium red (1 µM)): abolished or greatly diminished; Number of capsaicin-sensitive cells responding (DRG neuronal cells; low responses, 10 µM): 10; Peak [Ca^2+]i (Average ±SD) (DRG neuronal cells; low responses, 10 µM): 187 ± 66 (low responses) nM; [Ca^2+]i in capsaicin-sensitive DRG cells (DRG neuronal cells; result in words): increased intracellular calcium
CCCCCCCC(O)CCCCc1ccc(O)c(OC)c1 (centres unmarked) [1-(4-hydroxy-3-methoxyphenyl)dodecan-5-ol]	–	6.6 µM and 2 µg/mL	0 out of 5	0	–
CCCCCCCC(O)CC(=O)c1ccc(O)c(OC)c1 (centres unmarked) [3-hydroxy-1-(4-hydroxy-3-methoxyphenyl)decan-1-one]	–	66 µM and 19 µg/mL	0 out of 5	0	left atrium rat (left atrium rat): no change 10^-7 - 3x10^-5 M (sharp fall 10^-4 M); block of ATP or α1-receptors in vas deferens (vas deferens rat): Neither blocked; vas deferens rat (vas deferens rat; [3]): no effect 10^-4 M; diaphragm rat ↓ (diaphragm rat; 3x10^-5 M): ↓10% 3x10^-5 M; diaphragm rat (diaphragm rat; [3]): no effect 10^-5 M; right atrium-vagus guinea pig [1]: weak? enhanced slowing 10^-7 - 10^-6 M; right atrium guinea pig (right atrium guinea pig): no change basal rate 10^-7 - 10^-5 M; left atrium guinea pig (left atrium guinea pig): • no inotropi sm; effect on isoprenaline response, left atrium guinea pig (left atrium guinea pig; up to 30 µM): • no effect on isoprenali ne response (up to 30 µM)
CCCCCCCC(=O)CC(O)CCc1ccc(O)c(OC)c1 (centres unmarked) [3-hydroxy-1-(4-hydroxy-3-methoxyphenyl)dodecan-5-one]	–	67 µM and 22 µg/mL	5	167 ± 105	EC50 (rat mesenteric artery): 0.04 µM; relaxation of rat mesenteric artery (rat mesenteric artery): showed potency
CCCCCCCC(O)CC(=O)CCc1ccc2c(c1)OCO2 (centres unmarked) [5-hydroxy-1-(3,4-methylenedioxyphenyl)dodecan-3-one]	–	3 µM and 0.96 µg/mL	2	225 ± 78	EC50 (rat mesenteric artery): 0.69 µM; relaxation of rat mesenteric artery (rat mesenteric artery): showed potency
CCCCCC(O)CC(=O)CCc1ccc(O)c(OC)c1 (centres unmarked) [[6]-gingerol, 5-hydroxy-1-(4-hydroxy-3-methoxyphenyl)decan-3-one, reference compound]	73.8 ± 6.6	> 100 µM and > 29 µg/mL	–	–	–
CCCCCCCC(O)CC(=O)C=Cc1ccc(O)c(OC)c1 (centres unmarked) [[8]-dehydrogingerol, 5-hydroxy-1-(4-hydroxy-3-methoxyphenyl)dodecan-1-ene-3-one, reference compound]	–	41 µM and 13 µg/mL	–	–	–
CCCCCCCC(O)CC(=O)CCc1ccc(O)cc1 (centres unmarked) [[8]-demethoxygingerol, 5-hydroxy-1-(4-hydroxyphenyl)dodecan-3-one]	–	25 µM and 7.3 µg/mL	2	243 ± 71	–
CCCCCCCC(O)CC(O)CCc1ccc(O)c(OC)c1 (centres unmarked) [[8]-gingerdiol, 1-(4-hydroxy-3-methoxyphenyl)dodecane-3,5-diol, reference compound]	82.6 ± 9	–	2	246 ± 35	–
CCCCCCCC(O)CC(=O)CCc1ccc(O)c(OC)c1 (centres unmarked) [[8]-gingerol, 5-hydroxy-1-(4-hydroxy-3-methoxyphenyl)dodecan-3-one, reference compound]	70.4 ± 3.8	64 µM and 21 µg/mL	7	279 ± 111	–
CCCCCCCC(O)CC(=O)CCc1ccc(OC)c(O)c1 (centres unmarked) [[8]-isogingerol, 5-hydroxy-1-(3-hydroxy-4-methoxyphenyl)dodecan-3-one, reference compound]	–	11 µM and 3.5 µg/mL	2	281 ± 42	–
CCCCCCCC(O)CC(=O)CCc1cccc(OC)c1O (centres unmarked) [[8]-orthogingerol, 5-hydroxy-1-(2-hydroxy-3-methoxyphenyl)dodecan-3-one]	–	9.6 µM and 3.1 µg/mL	2	245 ± 64	–
